# Reference: patent US20220257552A1, “METHODS OF PRESCREENING AND TREATING BREAST CANCERS WITH SELECTIVE ANDROGEN RECEPTOR MODULATORS” (priority 2021, published 2022)
# Legend:
# [1] = test system: HCC-38 triple negative breast cancer cells; assay: SRB cell viability, HCC-38 cells infected with AR adenovirus; format: cell-based; conditions: 3 days
# Method: The SRB assay was used to determine cell number during cytotoxocity experiments. The following protocol was used: • 1. Cells were detached with 0.25% trypsin. • 2. Experimental cultures were cultured in 96-well microtiter plates (200 μL growth medium per well; 1,000-200,000 cells per well). • 3. Cultures were fixed with 50 μL 50% TCA (4° C.). (see cell fixation protocol for details). • 4. Fixed cells were stained with 50 μL 0.4% (wt/vol) SRB in 1% acetic acid for 10 minutes. • 5. SRB was removed and the cultures were quickly* rinsed 5 times with 1% acetic acid to remove unbound dye.** • 6. Cultures were air-dried overnight until there was no visible moisture. • 7. The cellular protein-bound SRB was dissolved with 200 μL unbuffered Tris base (10 mM, pH 10.5) for 30 minutes on a rocking platform shaker. • 8. Absorbance was read at 540 nm. * quickly performing rinsing process was to prevent desorption of protein-bound SRB ** completely removed residual wash solution by sharply flicking plates over sink.
# The following protocol was used for fixing cells: • a. 50 μL of 50% TCA (4° C.) was gently layered on the top of growth medium in each well to make a final TCA concentration of 10%. • b. Cultures were incubated at 4° C. for 1 hour. • c. Cultures were washed 5 times with tap water to remove TCA, growth medium, low-molecular-weight metabolites, and serum protein. • d. […]
# [2] = Phase 1 multiple ascending dose study G100402; format: in vivo, human
# Source text: These include: 1. Protocol G100401, a Phase 1 single ascending dose study in 96 healthy, young, male volunteers; 2. Protocol G100402, a Phase 1 multiple ascending dose study in 50 healthy, young, male volunteers, and 23 elderly male volunteers with truncal obesity; 3. Protocol G100503, a Phase 1 single dose pharmacokinetic study to assess the effect of a dosage regimen that simulates a sustained release formulation to an immediate release formulation in 18 healthy, young male volunteers and 18 postmenopausal women; 4. Protocol G100506, a Phase 1 single dose pharmacokinetic study to assess the relative bioavailability of a 3 mg hard shell capsule formulation to be used during continued clinical development and to assess the effect of food on the pharmacokinetics of the 3 mg softgel formulation in 27 healthy, young, male volunteers; 5. Protocol 006, a Phase 1 single dose and multiple dose pharmacokinetic study in 24 postmenopausal, Japanese women; 6. Protocol G200501, a Phase 2 study in 60 postmenopausal women and 60 elderly men to assess lean body mass and physical function; 7. Protocol 003, a Phase 1b study in 44 postmenopausal women; 8. Protocol G200502, a Phase 2b study in 159 men and postmenopausal women with cancer to assess lean body mass and physical function; 9.
# Both 10 mg and 30 mg daily doses were evaluated in Protocol G100402 for up to 14 days. […]
# [3] = test system: ZR-75-1 breast cancer cells; assay: ZR-75-1 cell proliferation (cell count); format: cell-based; conditions: 6 days, dose response
# Method: Cells were plated at varying densities in growth medium in 96 well plates. Cells were treated as indicated in the figures and viability measured using sulforhodamine B (SRB) or the number of cells counted using Coulter counter.
# Although a few previous reports have shown that MCF-7 cells express AR and respond to AR ligands (Buchanan et al. (2005) Cancer Res 65, 8487-8496), the MCF-7 cell line clone in the study lacks or minimally expresses AR, which is in concordance with other reports (De Amicis et al. (2010) Breast Cancer Res Treat 121, 1-11).
# [4] = test system: breast cancer specimens obtained from patients; assay: Breast cancer patient specimens, ex vivo sponge culture; format: cell-based, human
# Method: Specimens from breast cancer patients were collected with patient consent under a protocol approved by the UTHSC Institutional Review Board (IRB). Specimens were collected immediately after surgery in RPMI medium containing penicillin:streptomycin and Fungizone and transported to the laboratory on ice. The tissues were finely minced and treated with collagenase for 2 hours.
# HCI-13 tumors grown in female mice were allowed to reach 500-1000 mm^3 before the animals were sacrificed and the tumors were excised to be used for sponge culture. Patient specimens frozen in liquid nitrogen in freezing medium were used for sponge culture. […] Tumors were sliced into small pieces (˜1 mm^3) and incubated on pre-soaked gelatin sponges (5 fragments/sponge) in 12 well plates containing 1.5 mL medium (MEM+10% FBS+2 mM L-glutamine+10 μg/mL insulin+10 μg/mL hydrocortisone+penicillin:streptomycin). The cultures were performed in triplicates for HCI-13 and singly for patient specimens. Pooled samples (n=5/sponge) from each sponge constituted one sample. Tissues were harvested after 3 days of treatment, RNA extracted, and expression of various genes measured. Although the same procedure was adopted for specimens obtained from breast cancer patients, the specimens were cultured singly (n=5/sponge=one sample) and not in triplicates as performed for HCI-13.
# Like other cancers, breast cancer is also heterogeneous in its genomic profile as well as in its response to treatments. […] Three days after treatment, RNA was isolated from the tissues and expression of ER- and AR-target genes was measured.
# GAR15-13 PDX = assay: GAR15-13 palbociclib-resistant PDX in NSG mice; conditions: mouse, in vivo
# Source text: Data were presented as mean values±s.e.m. […] Data represented the mean±s.e.m. of four replicate cell culture wells per condition. […] P values are indicated by gray asterisks, where ****P<0.0001 for all highlighted comparisons.
# Tissue samples from an ER-positive, PR-negative, and HER2-negative (ER^+, PR^−, HER2^−) patient that progressed on (i.e., was resistant to) palbociclib were implanted into animal (NSG mice) models and grown as a patient-derived xenograft (PDX). […] This human tumor model also had amplification of the cyclin D1 (CCND1^Amp) gene which has been implicated as a driver of therapeutic resistance to CDKi. […] This is also observed in other models tested in vitro including a palbociclib resistant MCF-7 (MCF7 palbo^R) line (FIG. 44B).
# GR = molecular target: T1, GR (Rattus norvegicus, UniProt P06536); assay: GR transactivation in HEK-293 cells; format: cell-based
# T1 construct: expressed in transfected cells
# Method: Rat GR, MR, PR, ER-α and ER-β were individually cloned into a pCR3.1 vector backbone. Sequencing was performed to verify the absence of any mutations. HEK-293 cells were plated at 90,000 cells per well of a 24 well plate in Dulbecco's Minimal Essential Media supplemented with 5% charcoal-stripped FBS. […] Luciferase assays were performed 48 h after transfection. Transcriptional activation values are represented as firefly luciferase normalized to renilla luciferase.
# T1 sequence (P06536 whole entry): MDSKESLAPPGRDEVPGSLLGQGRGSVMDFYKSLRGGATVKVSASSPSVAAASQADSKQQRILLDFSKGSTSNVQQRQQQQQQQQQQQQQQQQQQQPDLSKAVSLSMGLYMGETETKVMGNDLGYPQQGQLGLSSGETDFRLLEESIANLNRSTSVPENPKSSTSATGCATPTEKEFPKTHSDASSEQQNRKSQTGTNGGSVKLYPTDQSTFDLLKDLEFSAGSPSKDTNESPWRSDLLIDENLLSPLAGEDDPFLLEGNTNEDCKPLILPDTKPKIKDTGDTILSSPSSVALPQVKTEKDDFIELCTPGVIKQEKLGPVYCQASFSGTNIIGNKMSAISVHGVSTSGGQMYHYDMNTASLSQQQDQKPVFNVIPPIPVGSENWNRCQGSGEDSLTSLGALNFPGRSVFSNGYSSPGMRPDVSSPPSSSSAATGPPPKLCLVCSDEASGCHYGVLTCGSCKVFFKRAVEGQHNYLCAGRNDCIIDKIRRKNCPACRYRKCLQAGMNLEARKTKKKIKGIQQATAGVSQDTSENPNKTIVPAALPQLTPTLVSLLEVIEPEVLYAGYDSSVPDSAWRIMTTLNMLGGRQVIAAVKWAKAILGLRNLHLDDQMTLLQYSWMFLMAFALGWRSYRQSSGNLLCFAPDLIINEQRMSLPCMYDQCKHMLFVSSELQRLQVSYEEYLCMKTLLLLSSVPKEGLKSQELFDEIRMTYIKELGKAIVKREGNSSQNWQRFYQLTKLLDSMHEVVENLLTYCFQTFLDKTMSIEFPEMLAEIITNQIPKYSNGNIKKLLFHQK
SMILES,cell growth [1],subjects with ALT increases above two times the ULN ([2]; 30 mg dose group),"tolerability ([2]; daily doses up to 30 mg, healthy male volunteers)",proliferation [3],specimens in which AR agonist activity was observed ([4]; 1 μM),"specimens in which ER function was inhibited ([4]; 1 μM Formula IX, 100 nM fulvestrant, 3 days)",tumor growth response (GAR15-13 PDX),"GR-mediated transactivation, agonist mode (GR; all tested concentrations)","dexamethasone-induced GR-mediated transactivation, antagonist mode (GR; co-incubation)"
"C[C@](O)(COc1ccc(C#N)cc1)C(=O)Nc1ccc(C#N)c(C(F)(F)F)c1 [Formula IX, (S)—N-(4-Cyano-3-(trifluoromethyl)phenyl)-3-(4-cyanophenoxy)-2-hydroxy-2-methylpropanamide]",inhibited,six,well tolerated,significantly reduced dose dependently,4 of 8,3 of 8,responsive,,
"C[C@](O)(COc1ccc(C#N)cc1)C(=O)Nc1ccc(C#N)c(Cl)c1 [Formula VIII, (S)—N-(3-chloro-4-cyanophenyl)-3-(4-cyanophenoxy)-2-hydroxy-2-methylpropanamide]",,,,,,,,did not induce,failed to alter
